The target in one experiment is AR / CBP ternary complex (Homo sapiens, UniProt P10275+Q92793). The experiment is described as follows: Ternary complex formation assay (sandwich ELISA, AR capture, CBP antibody detection) in VCaP cell lysates. To be noted: treated 1.5 hours, rabbit CBP or p300 antibody detection, average, read-out: Average Ternary Complex. Type of experiment: cell-based. In short, it runs like this: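 VCaP cells in 5% charcoal-stripped FBS were cultured ≥3 days and then given bifunctional compound for 1.5 h. Lysates went onto AR-antibody-coated plates. Bound CBP (or p300) was detected with a rabbit antibody plus HRP anti-rabbit, using QuantaRed chemifluorescence (ex 570/em 585) read immediately, at 5 min and at 15 min.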
A general note: In an ELISA, binding on a coated surface is turned into a signal by an enzyme label.

Another experiment concerns VCaP cells. The experiment is described as follows: VCaP growth inhibition assay (CTG). To be noted: Homo sapiens, 216 h, 30 pM R1881, 9 days. It is filed as cell-based. In short, it runs like this:
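VCaP cells in phenol red-free DMEM with 5% charcoal-stripped serum were stimulated with 30 pM R1881 (final) and treated with compound from 100 nM to 10 fM final (1:5 dilutions) for 9 days at 37 °C. Viability was read by CellTiter-Glo luminescence, and IC50 came from 4-parameter logistic fits.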

This is an account of results in US20250136578A1 (Kolm Therapeutics Inc., priority 2023, published 2025).

AR / CBP ternary complex, sequence (P10275 whole entry): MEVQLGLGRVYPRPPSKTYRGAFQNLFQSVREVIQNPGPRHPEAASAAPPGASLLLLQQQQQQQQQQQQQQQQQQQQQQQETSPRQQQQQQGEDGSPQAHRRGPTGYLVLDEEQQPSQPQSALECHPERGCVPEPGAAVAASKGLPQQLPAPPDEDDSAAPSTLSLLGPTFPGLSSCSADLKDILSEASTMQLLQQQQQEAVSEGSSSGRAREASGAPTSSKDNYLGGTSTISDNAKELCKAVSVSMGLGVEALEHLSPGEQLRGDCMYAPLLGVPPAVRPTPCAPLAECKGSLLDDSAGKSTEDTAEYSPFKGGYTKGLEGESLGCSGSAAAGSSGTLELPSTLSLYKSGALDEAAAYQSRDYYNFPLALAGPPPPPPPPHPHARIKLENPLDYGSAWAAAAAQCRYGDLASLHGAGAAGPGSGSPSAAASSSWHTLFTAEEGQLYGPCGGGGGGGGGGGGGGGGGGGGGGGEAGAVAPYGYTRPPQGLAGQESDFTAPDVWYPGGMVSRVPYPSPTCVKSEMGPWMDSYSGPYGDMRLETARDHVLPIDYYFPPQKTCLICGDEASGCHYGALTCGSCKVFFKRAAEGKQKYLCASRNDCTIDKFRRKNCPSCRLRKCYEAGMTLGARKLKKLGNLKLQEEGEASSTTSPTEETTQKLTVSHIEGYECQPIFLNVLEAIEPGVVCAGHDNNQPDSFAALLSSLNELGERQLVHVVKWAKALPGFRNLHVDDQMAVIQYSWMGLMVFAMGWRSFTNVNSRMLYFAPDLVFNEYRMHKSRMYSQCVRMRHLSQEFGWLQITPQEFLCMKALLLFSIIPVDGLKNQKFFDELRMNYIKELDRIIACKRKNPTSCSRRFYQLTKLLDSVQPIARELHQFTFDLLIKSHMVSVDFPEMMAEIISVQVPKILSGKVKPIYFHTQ
AR / CBP ternary complex, sequence (Q92793 2-2442): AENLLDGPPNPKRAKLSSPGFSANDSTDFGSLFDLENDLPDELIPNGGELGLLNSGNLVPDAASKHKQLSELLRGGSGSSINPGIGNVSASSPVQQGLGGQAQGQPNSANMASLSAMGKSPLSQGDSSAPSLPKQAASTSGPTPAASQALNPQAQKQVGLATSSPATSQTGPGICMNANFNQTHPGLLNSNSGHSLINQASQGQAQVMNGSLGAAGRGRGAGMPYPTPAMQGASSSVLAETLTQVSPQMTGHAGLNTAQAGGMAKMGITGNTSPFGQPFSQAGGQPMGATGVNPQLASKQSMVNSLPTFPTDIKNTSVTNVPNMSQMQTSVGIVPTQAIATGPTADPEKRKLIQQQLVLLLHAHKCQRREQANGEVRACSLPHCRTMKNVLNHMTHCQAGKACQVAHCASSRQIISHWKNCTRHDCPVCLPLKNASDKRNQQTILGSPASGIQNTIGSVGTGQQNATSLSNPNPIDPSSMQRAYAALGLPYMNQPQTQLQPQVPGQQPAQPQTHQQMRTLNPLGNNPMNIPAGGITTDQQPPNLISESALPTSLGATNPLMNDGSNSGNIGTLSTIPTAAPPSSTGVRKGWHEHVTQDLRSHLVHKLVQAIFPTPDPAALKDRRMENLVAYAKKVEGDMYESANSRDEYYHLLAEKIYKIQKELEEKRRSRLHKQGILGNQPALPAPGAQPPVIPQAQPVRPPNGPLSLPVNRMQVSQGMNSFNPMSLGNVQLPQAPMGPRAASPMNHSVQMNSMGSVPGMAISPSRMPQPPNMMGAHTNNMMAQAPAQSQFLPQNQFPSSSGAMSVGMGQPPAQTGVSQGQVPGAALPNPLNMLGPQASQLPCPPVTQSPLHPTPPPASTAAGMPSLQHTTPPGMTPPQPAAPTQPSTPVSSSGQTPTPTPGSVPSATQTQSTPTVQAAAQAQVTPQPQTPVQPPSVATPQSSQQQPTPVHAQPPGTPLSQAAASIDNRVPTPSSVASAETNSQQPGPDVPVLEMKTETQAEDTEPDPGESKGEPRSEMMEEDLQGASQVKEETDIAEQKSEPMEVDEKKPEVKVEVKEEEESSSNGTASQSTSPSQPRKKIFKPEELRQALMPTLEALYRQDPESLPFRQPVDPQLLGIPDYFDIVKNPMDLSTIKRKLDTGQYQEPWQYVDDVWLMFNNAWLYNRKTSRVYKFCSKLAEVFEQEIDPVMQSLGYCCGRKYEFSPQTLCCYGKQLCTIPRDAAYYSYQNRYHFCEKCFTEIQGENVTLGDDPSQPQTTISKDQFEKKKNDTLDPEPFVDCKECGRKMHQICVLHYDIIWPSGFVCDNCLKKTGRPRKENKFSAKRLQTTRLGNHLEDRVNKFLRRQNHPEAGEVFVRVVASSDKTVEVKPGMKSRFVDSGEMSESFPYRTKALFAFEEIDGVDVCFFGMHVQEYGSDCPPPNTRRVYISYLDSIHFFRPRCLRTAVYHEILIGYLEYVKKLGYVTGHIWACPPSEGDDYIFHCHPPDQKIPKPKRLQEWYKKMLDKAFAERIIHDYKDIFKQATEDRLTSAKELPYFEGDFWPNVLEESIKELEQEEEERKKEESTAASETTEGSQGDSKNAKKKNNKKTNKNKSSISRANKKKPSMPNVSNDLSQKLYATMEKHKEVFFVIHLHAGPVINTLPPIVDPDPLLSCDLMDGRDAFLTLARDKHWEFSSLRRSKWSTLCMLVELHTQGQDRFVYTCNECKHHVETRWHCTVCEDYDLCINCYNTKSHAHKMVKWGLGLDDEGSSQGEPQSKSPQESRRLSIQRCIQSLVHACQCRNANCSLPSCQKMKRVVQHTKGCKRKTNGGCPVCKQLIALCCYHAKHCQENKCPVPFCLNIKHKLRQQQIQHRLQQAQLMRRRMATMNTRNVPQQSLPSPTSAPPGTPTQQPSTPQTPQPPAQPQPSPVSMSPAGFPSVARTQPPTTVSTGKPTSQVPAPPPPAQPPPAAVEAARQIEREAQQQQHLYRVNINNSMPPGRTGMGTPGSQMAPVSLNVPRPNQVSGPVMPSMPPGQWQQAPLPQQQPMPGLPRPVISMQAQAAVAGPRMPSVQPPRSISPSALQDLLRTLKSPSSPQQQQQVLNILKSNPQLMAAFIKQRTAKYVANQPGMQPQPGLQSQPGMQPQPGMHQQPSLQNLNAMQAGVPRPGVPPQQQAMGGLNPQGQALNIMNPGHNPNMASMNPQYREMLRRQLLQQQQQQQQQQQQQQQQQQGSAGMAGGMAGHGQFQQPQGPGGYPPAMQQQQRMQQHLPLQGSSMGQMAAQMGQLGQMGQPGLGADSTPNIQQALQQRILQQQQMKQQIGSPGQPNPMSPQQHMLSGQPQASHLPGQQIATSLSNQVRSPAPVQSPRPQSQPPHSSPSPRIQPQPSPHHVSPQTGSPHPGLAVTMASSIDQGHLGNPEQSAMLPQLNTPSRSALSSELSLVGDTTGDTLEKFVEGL

In general, IC50 refers to the concentration that inhibits the measured activity by half. On to `CC(=O)N1CCc2c(c(N3CCCc4cc(-c5cnn(C)c5)c(C(F)F)cc43)nn2C2CCN(C3CC(C#Cc4ccc(C(=O)N[C@H]5CC[C@H](Oc6ccc(C#N)c(Cl)c6)CC5)nn4)C3)CC2)C1` (stereo partly drawn) [Compound 195, 6-[2-[3-[4-[5-acetyl-3-[7-(difluoromethyl)-6-(1-methylpyrazol-4-yl)-3,4-dihydro-2H-quinolin-1-yl]-6,7-dihydro-4H-pyrazolo[4,3-c]pyridin-1-yl]-1-piperidyl]cyclobutyl]ethynyl]-N-[4-(3-chloro-4-cyano-phenoxy)cyclohexyl]pyridazine-3-carboxamide], for which the EC50 at AR / CBP ternary complex was less than 1 nM. The compound also yielded an IC50 in the experiment on VCaP cells not above 0.1 nM.
The corresponding values for `COc1cc(O[C@H]2CC[C@H](NC(=O)c3ccc(N4CCC(CN5CCC(n6nc(N7CCCc8cc(-c9cnn(C)c9)c(C(F)F)cc87)c7c6CCN(C(C)=O)C7)CC5)CC4)cc3)CC2)ccc1C#N` [Compound 140, 4-[4-[[4-[5-acetyl-3-[7-(difluoromethyl)-6-(1-methylpyrazol-4-yl)-3,4-dihydro-2H-quinolin-1-yl]-6,7-dihydro-4H-pyrazolo[4,3-c]pyridin-1-yl]-1-piperidyl]methyl]-1-piperidyl]-N-[4-(4-cyano-3-methoxy-phenoxy)cyclohexyl]benzamide] are less than 1 nM and not above 0.1 nM.
As to `CC(=O)N1CCc2c(c(N3CCCc4cc(-c5cnn(C)c5)c(C(F)F)cc43)nn2[C@H]2CC[C@H](OC3CCN(c4ccc(C(=O)N[C@H]5CC[C@H](Oc6ccc(C#N)c(Cl)c6)CC5)nn4)CC3)CC2)C1` [Compound 205, 6-[4-[4-[5-acetyl-3-[7-(difluoromethyl)-6-(1-methylpyrazol-4-yl)-3,4-dihydro-2H-quinolin-1-yl]-6,7-dihydro-4H-pyrazolo[4,3-c]pyridin-1-yl]cyclohexoxy]-1-piperidyl]-N-[4-(3-chloro-4-cyano-phenoxy)cyclohexyl]pyridazine-3-carboxamide], the EC50 on AR / CBP ternary complex is less than 1 nM. Besides, the IC50 in the experiment on VCaP cells was not above 0.1 nM.
For the compound `CO[C@@H]1CN(c2ccc(C(=O)N[C@H]3CC[C@H](Oc4ccc(C#N)c(Cl)c4)CC3)nn2)CC[C@@H]1CN1CCC(n2nc(N3CCCc4cc(-c5cnn(C)c5)c(C(F)F)cc43)c3c2CCN(C(C)=O)C3)CC1` [Compound 219, 6-[4-[[4-[5-acetyl-3-[7-(difluoromethyl)-6-(1-methylpyrazol-4-yl)-3,4-dihydro-2H-quinolin-1-yl]-6,7-dihydro-4H-pyrazolo[4,3-c]pyridin-1-yl]-1-piperidyl]methyl]-3-methoxy-1-piperidyl]-N-[4-(3-chloro-4-cyano-phenoxy)cyclohexyl] pyridazine-3-carboxamide], the EC50 on AR / CBP ternary complex is less than 1 nM. The IC50 in the experiment on VCaP cells is not above 0.1 nM.
The corresponding values for `Cc1cc2c(N3CCN(C)c4cc(C5CC5)ncc43)cc(N3CCN(CC4CCN(c5ccc(C(=O)N[C@H]6CC[C@H](Oc7ccc(C#N)c(Cl)c7)CC6)nn5)CC4)CC3)cc2n(C)c1=O` [Compound 138, N-[4-(3-chloro-4-cyano-phenoxy)cyclohexyl]-6-[4-[[4-[5-(7-cyclopropyl-1-methyl-2,3-dihydropyrido[3,4-b]pyrazin-4-yl)-1,3-dimethyl-2-oxo-7-quinolyl]piperazin-1-yl]methyl]-1-piperidyl]pyridazine-3-carboxamide] are 1 to 10 nM and 1 to 100 nM.
Take `CC(=O)N1CCc2c(c(N3CCCc4cc(-c5nccs5)c(C(F)F)cc43)nn2C2CCN(CC3CCN(c4ccc(C(=O)N[C@H]5CC[C@H](Oc6ccc(C#N)c(Cl)c6)CC5)nn4)CC3)CC2)C1` [Compound 255, 6-[4-[[4-[5-acetyl-3-[7-(difluoromethyl)-6-thiazol-2-yl-3,4-dihydro-2H-quinolin-1-yl]-6,7-dihydro-4H-pyrazolo[4,3-c]pyridin-1-yl]-1-piperidyl]methyl]-1-piperidyl]-N-[4-(3-chloro-4-cyano-phenoxy)cyclohexyl]pyridazine-3-carboxamide]: the EC50 on AR / CBP ternary complex is less than 1 nM. The same compound showed an IC50 in the experiment with VCaP cells of 0.1 to 1 nM.
